Data: ChEMBL document CHEMBL4610066, “Phytol, a Chlorophyll Component, Produces Antihyperalgesic, Anti-inflammatory, and Antiarthritic Effects: Possible NFκB Pathway Involvement and Reduced Levels of the Proinflammatory Cytokines TNF-α and IL-6” (J Nat Prod, 2020)
Activity calls are given as the source filed them.

Key:
[1] = test system: Mus musculus; assay: Antiinflammatory activity in complete freund's adjuvant-induced albino Swiss mouse model of arthritis assessed as reduction in paw volume at 25 to 50 mg/kg, po pretreated for 1 hr followed by CFA stimulation and measured after 2 hrs by plethysmometric method; assay type: functional, organism-based
[2] = test system: Mus musculus; assay: Analgesic activity in formalin-induced albino Swiss mouse model of nociception assessed as reduction in time spent in paw licking during inflammatory phase at 25 to 50 mg/kg, po pretreated for 1 hr followed by formalin stimulation and measured after 15 to 30 mins by formalin test; assay type: functional, organism-based
[3] = test system: Mus musculus; assay: Antiinflammatory activity in complete freund's adjuvant-induced albino Swiss mouse model of arthritis assessed as suppression of CFA-induced increase in total NFkappaB level at 50 mg/kg, po pretreated for 1 hr followed by CFA stimulation and measured after 3 days by Western blot analysis; assay type: functional, organism-based
[4] = test system: Mus musculus; assay: Effect on ERK1/2 signaling in complete freund's adjuvant-induced albino Swiss mouse model of arthritis at 50 mg/kg, po pretreated for 1 hr followed by CFA stimulation and measured after 3 days by Western blot analysis; assay type: functional, organism-based
[5] = test system: Mus musculus; assay: Analgesic activity in albino Swiss mouse assessed as increase in reaction time at 25 mg/kg, po measured after 120 to 240 mins by hot plate test; assay type: functional, organism-based
[6] = test system: Mus musculus; assay: Antiinflammatory activity in complete freund's adjuvant-induced albino Swiss mouse model of arthritis assessed as reduction in paw edema AUC at 25 mg/kg, po pretreated for 1 hr followed by CFA stimulation and measured up to 6 hrs by plethysmometric method relative to control; assay type: functional; set-up: scale not given: the % may be the effect or the level left
[7] = test system: Mus musculus; assay: Antiinflammatory activity in complete freund's adjuvant-induced albino Swiss mouse model of arthritis assessed as reduction in edema AUC at 50 mg/kg, po administered once daily for 10 days measured every other day during compound dosing relative to control; assay type: functional; set-up: scale not given: the % may be the effect or the level left
[8] = Neurotoxicity in complete freund's adjuvant-induced albino Swiss mouse model of arthritis assessed as motor coordination impairment at 50 mg/kg, po pretreated for 1 hr followed by CFA stimulation and measured up to 240 mins by rotarod test; assay type: toxicity, organism-based; conditions: in vivo, 4 h
[9] = test system: Mus musculus; assay: Antiinflammatory activity in complete freund's adjuvant-induced albino Swiss mouse model of arthritis assessed as reduction in paw edema at 50 mg/kg, po pretreated for 1 hr followed by CFA stimulation and measured up to 6 hrs by plethysmometric method relative to control; assay type: functional; set-up: scale not given: the % may be the effect or the level left
[10] = test system: Mus musculus; assay: Antiinflammatory activity in complete freund's adjuvant-induced albino Swiss mouse model of arthritis assessed as reduction in joint swelling at 50 mg/kg, po administered once daily for 10 days measured every other day during compound dosing; assay type: functional, organism-based
[11] = Neurotoxicity in complete freund's adjuvant-induced albino Swiss mouse model of arthritis assessed as induction of myorelaxant effect by measuring change in muscle force at 50 mg/kg, po pretreated for 1 hr followed by CFA stimulation and measured every other day for 10 days by grip strength meter method; assay type: toxicity, organism-based; conditions: in vivo, 240 h
[12] = test system: Mus musculus; assay: Analgesic activity in formalin-induced albino Swiss mouse model of nociception assessed as reduction in time spent in paw licking during neurogenic phase at 50 mg/kg, po pretreated for 1 hr followed by formalin stimulation and measured up to 5 mins by formalin test; assay type: functional, organism-based
[13] = test system: Mus musculus; assay: Antiinflammatory activity in complete freund's adjuvant-induced albino Swiss mouse model of arthritis assessed as reduction in leukocyte content in synovial fluid at 50 mg/kg, po pretreated for 1 hr followed by CFA stimulation and measured after 3 days; assay type: functional, organism-based
[14] = test system: Mus musculus; assay: Antiinflammatory activity in complete freund's adjuvant-induced albino Swiss mouse model of arthritis assessed as reduction in MPO activity in synovial fluid at 50 mg/kg, po pretreated for 1 hr followed by CFA stimulation and measured after 3 days; assay type: functional, organism-based
[15] = test system: Mus musculus; assay: Analgesic activity in complete freund's adjuvant-induced albino Swiss mouse model of hyperalgesia assessed as increase in paw withdrawal threshold at 50 mg/kg, po administered daily and measured every other for 10 days and on day 21 and 28; assay type: functional, organism-based
[16] = test system: Mus musculus; assay: Antiinflammatory activity in complete freund's adjuvant-induced albino Swiss mouse model of arthritis assessed as reduction in IL6 production in synovial fluid at 50 mg/kg, po pretreated for 1 hr followed by CFA stimulation and measured after 3 days; assay type: functional, organism-based
[17] = test system: Mus musculus; assay: (§1) Antiinflammatory activity in complete freund's adjuvant-induced albino Swiss mouse model of arthritis assessed as reduction in COX2 production in spinal cord at 50 mg/kg, po pretreated for 1 hr followed by CFA stimulation and measured after 3 days by Western blot analysis; assay type: functional, organism-based
[18] = test system: Mus musculus; assay: Analgesic activity in albino Swiss mouse assessed as increase in reaction time at 25 mg/kg, po measured after 60 to 90 mins by hot plate test; assay type: functional, organism-based
[19] = test system: Mus musculus; assay: Antiinflammatory activity in complete freund's adjuvant-induced albino Swiss mouse model of arthritis assessed as reduction in TNFalpha production in synovial fluid at 50 mg/kg, po pretreated for 1 hr followed by CFA stimulation and measured after 3 days; assay type: functional, organism-based
[20] = test system: Mus musculus; assay: as §1, with “In vivo inhibition of MAPK pathway” for “Antiinflammatory activity”, “phosphorylated p38 MAPK to total p38 MAPK ratio” for “COX2 production”; assay type: functional, organism-based
[21] = test system: Mus musculus; assay: Analgesic activity in complete freund's adjuvant-induced albino Swiss mouse model of hyperalgesia assessed as increase in paw withdrawal threshold at 50 mg/kg, po pretreated for 1 hr followed by CFA stimulation and measured after 7 hrs by analgesimetric method; assay type: functional, organism-based
[22] = test system: Mus musculus; assay: Antiinflammatory activity in complete freund's adjuvant-induced albino Swiss mouse model of arthritis assessed as reduction in IL6 production in spinal cord at 50 mg/kg, po pretreated for 1 hr followed by CFA stimulation and measured after 3 days; assay type: functional, organism-based
[23] = test system: Mus musculus; assay: Analgesic activity in albino Swiss mouse assessed as increase in reaction time at 50 mg/kg, po measured after 60 to 240 mins by hot plate test; assay type: functional, organism-based
[24] = test system: Mus musculus; assay: Antiinflammatory activity in complete freund's adjuvant-induced albino Swiss mouse model of arthritis assessed as reduction in paw edema AUC at 50 mg/kg, po pretreated for 1 hr followed by CFA stimulation and measured up to 6 hrs by plethysmometric method relative to control; assay type: functional; set-up: scale not given: the % may be the effect or the level left
[25] = test system: Mus musculus; assay: In vivo inhibition of NFkappaB phosphorylation at ser536 residue in complete freund's adjuvant-induced albino Swiss mouse model of arthritis at 50 mg/kg, po pretreated for 1 hr followed by CFA stimulation and measured after 3 days by Western blot analysis; assay type: functional, organism-based
[26] = test system: Mus musculus; assay: Antiinflammatory activity in complete freund's adjuvant-induced albino Swiss mouse model of arthritis assessed as reduction in IL10 production in synovial fluid at 50 mg/kg, po pretreated for 1 hr followed by CFA stimulation and measured after 3 days; assay type: functional, organism-based

In the case of `C/C(=C\CO)CCC[C@H](C)CCC[C@H](C)CCCC(C)C` [TRANS-PHYTOL], the Activity [1] is reported as “Active”, the Activity [2] is reported as “Active” and the Activity [3] is reported as “Active”. For the same molecule, the Activity [4] was “inactive”, the Activity [5] was “inactive” and the Activity [6] was 18%. For the same molecule, the Activity [7] was 46%, the Activity [8] was “Non-Toxic” and the Activity [9] was 45%. For the same molecule, the Activity [10] was “Active”, the Activity [11] was “Non-Toxic” and the Activity [12] was “Active”. For the same molecule, the Activity [13] was “Active”, the Activity [14] was “Active” and the Activity [15] was “Active”. The Activity [16] was “Active”, the Activity [17] was “Active” and the Activity [18] was “Active”. The Activity [19] was “Active”, the inhibition [20] was “Active” and the Activity [21] was “Active”. The Activity [22] was “Active”, the Activity [23] was “Active” and the Activity [24] was 45%. For the same molecule, the inhibition [25] was “Active” and the Activity [26] was “inactive”.
